The record followed here is patent publication US10168342B2, “Lipid probes and uses thereof” (THE SCRIPPS RESEARCH INSTITUTE, priority 2015, dated 2019).

Structures are written as SMILES.

Common to all, as to test: In situ competitive SILAC profiling with A-DA probe in (PMA-stimulated) A549 cells
Common to all, as to details: A549 cells, A-DA probe

Experiment [1] concerns the target T1, A-DA lipid probe targets in A549 cells (Homo sapiens, UniProt Q7Z2K6).
T1 sequence (Q7Z2K6 1-904): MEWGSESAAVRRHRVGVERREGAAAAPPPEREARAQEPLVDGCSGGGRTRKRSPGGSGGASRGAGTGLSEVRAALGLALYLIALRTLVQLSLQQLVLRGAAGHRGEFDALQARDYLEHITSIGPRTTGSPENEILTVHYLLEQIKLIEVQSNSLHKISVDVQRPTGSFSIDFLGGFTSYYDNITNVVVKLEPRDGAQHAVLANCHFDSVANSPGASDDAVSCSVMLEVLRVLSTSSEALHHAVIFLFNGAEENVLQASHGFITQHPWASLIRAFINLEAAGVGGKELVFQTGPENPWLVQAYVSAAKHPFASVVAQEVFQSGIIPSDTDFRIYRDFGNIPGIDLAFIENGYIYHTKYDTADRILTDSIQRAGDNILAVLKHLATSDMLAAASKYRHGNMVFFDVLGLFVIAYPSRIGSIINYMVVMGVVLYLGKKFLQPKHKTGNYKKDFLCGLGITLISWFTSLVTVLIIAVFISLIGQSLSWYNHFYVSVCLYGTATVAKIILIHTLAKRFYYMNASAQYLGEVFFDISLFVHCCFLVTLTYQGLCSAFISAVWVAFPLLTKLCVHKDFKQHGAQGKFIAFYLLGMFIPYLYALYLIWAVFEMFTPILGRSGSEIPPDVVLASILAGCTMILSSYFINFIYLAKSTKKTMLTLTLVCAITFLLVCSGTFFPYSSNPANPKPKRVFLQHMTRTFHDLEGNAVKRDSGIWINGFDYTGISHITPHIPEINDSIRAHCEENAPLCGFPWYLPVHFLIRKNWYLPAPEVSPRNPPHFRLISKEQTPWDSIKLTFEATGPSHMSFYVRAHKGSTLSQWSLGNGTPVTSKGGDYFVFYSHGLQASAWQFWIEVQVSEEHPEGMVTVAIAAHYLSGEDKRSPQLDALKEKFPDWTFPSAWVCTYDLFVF

The target in experiment [2] is T2, A-DA lipid probe targets in A549 cells (Homo sapiens, UniProt O95470).
T2 sequence (O95470 1-568): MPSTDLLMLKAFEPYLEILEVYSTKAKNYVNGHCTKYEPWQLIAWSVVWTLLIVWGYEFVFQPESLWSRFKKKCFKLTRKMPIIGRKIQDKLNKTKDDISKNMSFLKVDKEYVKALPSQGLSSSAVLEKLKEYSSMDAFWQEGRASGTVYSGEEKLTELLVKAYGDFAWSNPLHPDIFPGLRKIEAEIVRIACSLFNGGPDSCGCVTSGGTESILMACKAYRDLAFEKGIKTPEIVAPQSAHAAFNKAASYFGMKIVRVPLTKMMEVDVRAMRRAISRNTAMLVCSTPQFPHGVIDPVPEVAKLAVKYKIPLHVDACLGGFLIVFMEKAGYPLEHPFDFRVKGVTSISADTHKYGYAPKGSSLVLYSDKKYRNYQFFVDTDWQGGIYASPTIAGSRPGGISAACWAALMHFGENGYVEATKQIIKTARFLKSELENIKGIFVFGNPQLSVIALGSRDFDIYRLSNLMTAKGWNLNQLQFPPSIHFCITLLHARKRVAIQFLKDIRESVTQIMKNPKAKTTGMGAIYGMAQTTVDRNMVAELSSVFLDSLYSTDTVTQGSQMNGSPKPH

Experiment [3] has as its target T3, A-DA lipid probe targets in A549 cells (Homo sapiens, UniProt P35354).
T3 sequence (P35354 18-604): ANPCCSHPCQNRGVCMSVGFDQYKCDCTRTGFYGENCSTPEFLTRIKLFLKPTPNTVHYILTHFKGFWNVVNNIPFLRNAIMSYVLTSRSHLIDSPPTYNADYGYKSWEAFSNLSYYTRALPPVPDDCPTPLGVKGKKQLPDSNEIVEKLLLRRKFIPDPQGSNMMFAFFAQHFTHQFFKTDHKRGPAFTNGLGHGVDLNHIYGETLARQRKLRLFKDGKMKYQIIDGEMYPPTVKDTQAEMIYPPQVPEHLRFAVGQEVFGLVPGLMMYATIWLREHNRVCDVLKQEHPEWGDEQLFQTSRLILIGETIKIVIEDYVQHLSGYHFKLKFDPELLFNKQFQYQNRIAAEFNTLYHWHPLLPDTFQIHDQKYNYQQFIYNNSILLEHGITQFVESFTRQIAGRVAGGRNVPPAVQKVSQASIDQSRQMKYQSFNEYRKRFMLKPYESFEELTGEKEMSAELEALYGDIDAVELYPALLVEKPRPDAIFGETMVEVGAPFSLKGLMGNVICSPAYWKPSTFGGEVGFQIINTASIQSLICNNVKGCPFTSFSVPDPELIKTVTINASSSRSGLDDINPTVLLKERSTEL

The target of experiment [4] is T4, A-DA lipid probe targets in A549 cells (Homo sapiens, UniProt P30519).
T4 sequence (P30519 1-316): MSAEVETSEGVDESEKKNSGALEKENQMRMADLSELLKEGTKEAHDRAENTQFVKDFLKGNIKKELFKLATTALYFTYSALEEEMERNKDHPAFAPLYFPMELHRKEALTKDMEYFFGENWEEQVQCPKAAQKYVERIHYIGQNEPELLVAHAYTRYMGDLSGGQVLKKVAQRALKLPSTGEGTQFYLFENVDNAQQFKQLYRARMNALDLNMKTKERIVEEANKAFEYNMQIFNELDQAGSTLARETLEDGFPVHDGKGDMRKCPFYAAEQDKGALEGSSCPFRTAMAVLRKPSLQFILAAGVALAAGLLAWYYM

In the case of `C=CCN(C)CCCCCCOc1ccc(C(=O)c2ccc(Br)cc2)c(F)c1` [Ro488071], the “SILAC ratio, ERMP1 (Q7Z2K6)” value in experiment [1] (competitor 5 μM) turned out to be 1.4; in experiment [1] (competitor 50 μM) it was 3.2. Moreover, the “SILAC ratio, SGPL1 (O95470)” value in experiment [2] (competitor 5 μM) is reported as 1.5; in experiment [2] (competitor 50 μM), 3.0. The “SILAC ratio, PTGS2 (P35354)” value worked out at 2.5 in experiment [3] (competitor 5 μM) and 3.3 in experiment [3] (competitor 50 μM). Besides, the “SILAC ratio, HMOX2 (P30519)” value in experiment [4] (competitor 5 μM) amounted to 1.3; in experiment [4] (competitor 50 μM), 3.4.

Consider `O=C(/C=C/c1cccnc1)NCCCCC1CCN(C(=O)c2ccccc2)CC1` [FK-866, reference compound], for which the “SILAC ratio, ERMP1 (Q7Z2K6)” value in experiment [1] (competitor 25 μM) is 1.6. In experiment [2] (competitor 25 μM), the “SILAC ratio, SGPL1 (O95470)” value was 1.2. The “SILAC ratio, PTGS2 (P35354)” value in experiment [3] (competitor 25 μM) came to 1.9. Also, the “SILAC ratio, HMOX2 (P30519)” value in experiment [4] (competitor 25 μM) is on record as 1.3.
